The values below come from paper PMC5402304, “Oxoaporphine Metal Complexes (Co^II, Ni^II, Zn^II) with High Antitumor Activity by Inducing Mitochondria-Mediated Apoptosis and S-phase Arrest in HepG2” (Scientific Reports, 2017).

The test system of one data set is cleaved PARP. As to the kind of experiment: Western blot of cleaved PARP in HepG2 cells. It counts as cell-based, human. Particulars: 24 h. The protocol: During the caspases-activated apoptotic cascades, mitochondrial apoptotic genes Apaf-1, PARP play an important role. The expressions of Apaf-1, pro-PARP and cleaved PARP in HepG2 cells treated with 3 were carried out by Western blotting. […] The expression of Apaf-1 protein was further confirmed by RT-PCR (Fig. 13C) that the up-regulation of Apaf-1 was also observed. PARP was considered to be an important indicator of cell apoptosis, and the cleaved PARP could cause cellular inactivation and prevent DNA repair.
After incubated with 1–3 (1.0 μM) for 24 h, HepG2 cells were harvested and lysed in 150 μL of lysed buffer (149 μL RIPA and 1 μL PMSF), and then placed on ice for 15 min. The total proteins were extracted by centrifuging the cell sample at 10000 rpm at 4 °C for 10 min. Then about 50 μg of purified proteins were mixed with equal volume of electrophoresis sample buffer, and the mixture was boiled for 10 min. Meanwhile the equal protein content from the control cells was prepared in the same way. The cell sample (10 μL) was loaded onto 10% SDS-PAGE gels and then transferred onto a microporous polyvinylidene difluoride (PVDF) membrane. The membrane was blocked with 5% BSA in TBST buffer for more than 2 h. […] The immunoreactive signals were detected using an enhanced chemo-luminance kit (Pierce ECL Western Blotting Substrate) following the procedures given in the user manual.
A general note: In western blotting, separated proteins are transferred to a membrane and probed.

Another data set relates to HepG2 cells. As to the kind of experiment: Comet assay for DNA damage. Particulars: HepG2, 1.0 μM, 24 h. Also noted: unit not given here. It counts as cell-based, human. On the procedure:
After the observation of significant S-phase arrest caused by 1–3, the study of DNA damage assay is necessary. The single cell gel electrophoresis technique (comet assay) is a simple, sensitive, reliable, and rapid method to detect DNA damage in eukaryotic cell[39]. As shown in Table 3 and Fig. 6, 1–3 at 1.0 μM induced DNA damage (fragmentation or unwinding) appeared as fluorescent comets with remarkable increase of tails size, especially for 3.
The comet assay is a simple method for measuring DNA strand breaks in cells. The comet assay reagent kit was purchased from Trevigen, and the experiment was carried out according to the manufacturer’s instructions. After treatment with OD and 1–3 at 1.0 μM, HepG2 cells were harvested and suspended at 1 × 10^6 Hep-G2 cells/mL in PBS. The cells suspension was mixed with melted LM agarose at a ratio of 1:10 (v/v). An aliquot (75 μL) of the mixture was immediately pipetted onto the slide (Comet Slide TM). After refrigeration for 30 min, the slide was immersed in pre-chilled lysis solution and left on ice for 60 min, followed by immersing in freshly prepared alkaline solution (300 mM NaOH, 1 mM EDTA, pH > 13) for 60 min on ice in darkness. After DNA unwinding, the slide was subjected to alkaline solution for electrophoresis in a Savant ps 250 system set at 300 mA and 1 volt/cm for 30 min. After electrophoresis, the slide was rinsed with distilled H2O, fixed in 70% ethanol for 5 min and air-dried overnight. DNA was stained with SYBR Green I (Trevigen) and visualized under a fluorescence microscope (Nikon, Eclipse E600).

Data set [1] in a line: Solution stability by HPLC. It counts as physicochemical. As to conditions: TBS; 0 and 24 h; mobile phase methanol/H2O 80/20. On the procedure: The stability of 1–3 in Tris-HCl buffer solution (TBS, pH = 7.35, containing 1% DMSO) for 0, 12 and 48 h were primarily analyzed by means of UV-Vis spectroscopy, as shown in Figure S1.
The stability of 1–3 under physiological conditions ([…] buffer solution with pH value of 7.35, containing 1% DMSO), was carried out using UV-vis spectroscopy and HPLC. 1–3 were dissolved in DMSO at 1 × 10^−3 M, and then diluted by buffer solution. The UV-vis absorbance of these complexes at 0 h, 12 h and 48 h were measured, respectively. The solution stability of 3 was further confirmed by HPLC experiments. 3 in aqueous solution at 1.0 mg · mL^−1 was analyzed by HPLC at 0 h and 24 h respectively, with reversed-phase C18 column and methol/H2O (80:20) as mobile phase.

In another data set the test system is HepG2. As to the kind of experiment: Cell apoptosis assay by flow cytometry, Annexin V-FITC/PI. It counts as cell-based, human. Particulars: HepG2, 5.0 μM, 24 h. The protocol:
The quantitative analysis of apoptotic HepG2 induced by 1–3 (1.0, 2.0 and 5.0 μM) and their corresponding metal salts (5.0 μM) after 24 h treatment, were investigated by flow cytometry and Annexin V-FITC/PI double staining. As depicted in Figs 7 and S6, 1–3 caused a significant increase in apoptotic cells comparing to the untreated cells.
Cell cycle progression and apoptosis were determined by flow cytometric analysis. (a) Cell cycle arrest assay: HepG2 cells in their logarithmic phase were plated into 50 mL plates at a final density of 5−6 × 10^6 cells/well overnight, then they were treated with various doses (0.25, 0.5 and 1.0 μM) of 1–3 for another 24 h. Cells were trypsinized, collected, and fixed in ice-cold 75% ethanol at −20 °C overnight. After centrifugation, the fixed cells were rinsed with ice-cold phosphate buffered saline (PBS), and resuspended in 0.5 mL of PBS containing 100 μg/mL RNase, 50 μg/mL propidium iodide (PI) in the dark for 5−10 min. The cell cycle distribution was analyzed by FACS Calibur flow cytometer (BD) and calculated using ModFIT LT software. (b) Apoptosis assay: 1 × 10^5 HepG2 cells were plated in 6-well plates, after incubation for 24 h with complexes 1–3 at 1.0, 2.0 and 5.0 μM, cells were collected, and Apoptosis Detection kit FITC Annexin V was used to analyze the cell apoptosis according to the manufacturer’s instructions.

Turning to [Zn(OD)2(H2O)2] (ClO4)2 [Complex 3], in the data set with cleaved PARP, the “increment of cleaved PARP” value is recorded as “approximately 70 fold”. In addition, in the data set on HepG2 cells, the Comet length is 119.12 ± 6.59, the Olive tail moment worked out at 22.67 ± 3.76, the Tail length is listed as 58.67 ± 9.14 and the Tail moment is recorded as 30.46 ± 6.98. Besides, the “stability in solution (HPLC chromatograms)” value in data set [1] was “no obvious changes of HPLC chromatograms”. The “population of apoptotic cells” value with HepG2 is reported as 25.3%.
